Experimental data reported in ChEMBL document CHEMBL1201862, “PubChem BioAssay data set” (2004).
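Dose response: 5 concentrations. Exposure: 48 h. Format: 96-well plates. Endpoint: linear interpolation; highest concentration if not reached. At the GI50, growth is halved.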 Active and inactive are the calls of the source. Cut-off read from the data, not from the text of the source: active = GI50 up to about 1.1 µM and inactive = higher.

Columns and labels:
Assay in all cases: NCI anticancer screen, dose series, 48 h
[1] = system: A549
[2] = system: HCT-15
[3] = system: KM12
[4] = system: M14
[5] = system: SF-268
[6] = system: SF-295
[7] = system: SF-539
[8] = system: SK-MEL-2
[9] = system: SNB-19
[10] = system: SNB-75
[11] = system: UACC-62
[12] = system: UO-31
[13] = system: CAKI-1
[14] = system: EKVX
[15] = system: HCC 2998
[16] = system: OVCAR-5

Structure (SMILES): O=C(NN1C(=O)C(Cl)C1c1ccc(O)cc1)c1ccccc1O (stereo unspecified)
- GI50 [1]: 22.4 µM (inactive)
- GI50 [2]: 14.6 µM
- GI50 [3]: 14 µM (inactive)
- GI50 [4]: 22.2 µM (inactive)
- GI50 [5]: 18.8 µM (inactive)
- GI50 [6]: 16.6 µM (inactive)
- GI50 [7]: 23.4 µM (inactive)
- GI50 [8]: 19.9 µM (inactive)
- GI50 [9]: 23 µM (inactive)
- GI50 [10]: 34.8 µM (inactive)
- GI50 [11]: 17.2 µM (inactive)
- GI50 [12]: 15.6 µM (inactive)

Structure (SMILES): Cc1cc(C)[n+]2c(c1)C=CC2.[O-][Cl+3]([O-])([O-])[O-]
- GI50 [1]: 18.1 µM (inactive)
- GI50 [13]: 15.6 µM (inactive)
- GI50 [14]: 21.6 µM (inactive)
- GI50 [15]: > 100 µM (inactive)
- GI50 [3]: 27.6 µM (inactive)
- GI50 [4]: 8.11 µM (inactive)
- GI50 [16]: > 100 µM (inactive)
- GI50 [5]: 64 µM (inactive)
- GI50 [6]: 25.1 µM (inactive)
- GI50 [7]: 22.8 µM (inactive)
- GI50 [8]: 11 µM (inactive)
- GI50 [9]: 42.7 µM (inactive)
- GI50 [10]: 6.05 µM (inactive)
- GI50 [12]: 39.4 µM (inactive)

Structure (SMILES): COc1ccc(CC#C/C=C/C(=O)NCC(C)C)cc1
- GI50 [1]: > 100 µM (inactive)
- GI50 [14]: > 100 µM (inactive)
- GI50 [15]: > 100 µM (inactive)
- GI50 [2]: > 100 µM
- GI50 [3]: > 100 µM (inactive)
- GI50 [4]: > 100 µM (inactive)
- GI50 [16]: > 100 µM (inactive)
- GI50 [5]: > 100 µM (inactive)
- GI50 [6]: > 100 µM (inactive)
- GI50 [7]: > 100 µM (inactive)
- GI50 [8]: > 100 µM (inactive)
- GI50 [9]: > 100 µM (inactive)
- GI50 [10]: 55 µM (inactive)
- GI50 [11]: > 100 µM (inactive)
- GI50 [12]: > 100 µM (inactive)

Structure (SMILES): CC(=O)Nc1ccc(C(=O)N2N=C(C)/C(=C/c3ccc(O)cc3)C2=O)cc1
- GI50 [1]: > 100 µM (inactive)
- GI50 [13]: > 100 µM (inactive)
- GI50 [14]: > 100 µM (inactive)
- GI50 [15]: > 100 µM (inactive)
- GI50 [2]: > 100 µM
- GI50 [3]: > 100 µM (inactive)
- GI50 [16]: > 100 µM (inactive)
- GI50 [5]: > 100 µM (inactive)
- GI50 [6]: > 100 µM (inactive)
- GI50 [7]: > 100 µM (inactive)
- GI50 [8]: > 100 µM (inactive)
- GI50 [9]: > 100 µM (inactive)
- GI50 [10]: > 100 µM (inactive)
- GI50 [12]: > 100 µM (inactive)

Structure (SMILES): CCS/C(=N\c1ccccc1)SC
- GI50 [1]: > 100 µM (inactive)
- GI50 [13]: > 100 µM (inactive)
- GI50 [14]: > 100 µM (inactive)
- GI50 [15]: > 100 µM (inactive)
- GI50 [2]: > 100 µM
- GI50 [3]: > 100 µM (inactive)
- GI50 [4]: > 100 µM (inactive)
- GI50 [16]: > 100 µM (inactive)
- GI50 [5]: > 100 µM (inactive)
- GI50 [6]: > 100 µM (inactive)
- GI50 [7]: > 100 µM (inactive)
- GI50 [8]: > 100 µM (inactive)
- GI50 [9]: > 100 µM (inactive)
- GI50 [10]: 51.8 µM (inactive)
- GI50 [11]: > 100 µM (inactive)
- GI50 [12]: > 100 µM (inactive)

Structure (SMILES): CCCN(CCC)C1=Nc2ccccc2-n2cnnc2C1
- GI50 [1]: > 100 µM (inactive)
- GI50 [14]: > 100 µM (inactive)
- GI50 [2]: > 100 µM
- GI50 [3]: > 100 µM (inactive)
- GI50 [4]: > 100 µM (inactive)
- GI50 [16]: > 100 µM (inactive)
- GI50 [5]: > 100 µM (inactive)
- GI50 [6]: > 100 µM (inactive)
- GI50 [7]: > 100 µM (inactive)
- GI50 [8]: > 100 µM (inactive)
- GI50 [9]: > 100 µM (inactive)
- GI50 [11]: > 100 µM (inactive)
- GI50 [12]: > 100 µM (inactive)

Structure (SMILES): COc1ccc(C(c2c(O)c3ccccc3n(-c3ccccc3)c2=O)c2c(O)c3ccccc3n(-c3ccccc3)c2=O)cc1
- GI50 [1]: > 100 µM (inactive)
- GI50 [13]: > 100 µM (inactive)
- GI50 [14]: > 100 µM (inactive)
- GI50 [15]: > 100 µM (inactive)
- GI50 [2]: > 100 µM
- GI50 [3]: > 100 µM (inactive)
- GI50 [16]: > 100 µM (inactive)
- GI50 [5]: > 100 µM (inactive)
- GI50 [7]: > 100 µM (inactive)
- GI50 [8]: > 100 µM (inactive)
- GI50 [9]: > 100 µM (inactive)
- GI50 [12]: > 100 µM (inactive)
